# From ChEMBL document CHEMBL1955843, “Novel hepatitis C virus replicon inhibitors: synthesis and structure-activity relationships of fused pyrimidine derivatives” (Bioorg Med Chem Lett, 2012)
# Columns and labels:
# Hepatitis C virus [1] = assay: Antiviral activity against Hepatitis C virus subtype 1b infected in HuH7 cells assessed as inhibition of viral replication by RT-PCR analysis in the presence of fetal calf serum; type: functional, organism-based, Hepacivirus hominis; settings: genotype 1b, Huh-7
# [2] = Cytotoxicity against human HuH7 cells by MTT assay; type: cell-based, Huh-7; settings: read-out: TD50 (the source's name)
# Hepatitis C virus [3] = assay: Antiviral activity against Hepatitis C virus subtype 1a infected in HuH7 cells assessed as inhibition of viral replication by RT-PCR analysis in the presence of fetal calf serum; type: functional, organism-based, Hepacivirus hominis; settings: Huh-7
# [4] = Ratio of EC50 for HCV subtype 1a to EC50 for HCV subtype 1b; type: functional
# Hepatitis C virus [5] = assay: Antiviral activity against Hepatitis C virus subtype 1b infected in HuH7 cells assessed as inhibition of viral replication by RT-PCR analysis in the presence of human serum; type: functional, organism-based, Hepacivirus hominis; settings: genotype 1b, Huh-7
# Rattus norvegicus [6] = assay: AUC in rat plasma at 2.5 mg/kg, po; type: ADME, organism-based; set-up: dose 2.5 mg/kg, route oral; settings: in vivo
# Rattus norvegicus [7] = assay: Clearance in rat at 2.5 mg/kg, po and 2.5 mg/kg, iv; type: ADME, organism-based; settings: in vivo
# Rattus norvegicus [8] = assay: Oral bioavailability in rat at 2.5 mg/kg; type: ADME, organism-based; settings: in vivo
# [9] = Half life in rat at 2.5 mg/kg, po and 2.5 mg/kg, iv; type: ADME, organism-based; settings: in vivo
# [10] = Cmax in rat at 2.5 mg/kg, po; type: ADME, organism-based; set-up: dose 2.5 mg/kg, route oral; settings: in vivo
EC50 (Hepatitis C virus [1]) [µM],EC50 (Hepatitis C virus [3]) [µM],SMILES,CC50 [2] [µM],other results
0.47,4.6,Cc1ccc(Sc2ccc(O)cc2)c(Nc2ncnc3nc(C(C)(C)C)ccc23)c1,7.1,–
30,47.6,CCNc1ncc2c(Nc3cc(C)ccc3Sc3ccc(O)cc3)ncnc2n1,> 50,–
> 50,> 50,CC(=O)Nc1ccc(Sc2ccc(C)cc2Nc2ncnc3nc(C)ccc23)cc1,> 50,–
9.9,15.7,Cc1ccc(Sc2ccccc2)c(Nc2cccc3nc(C)ccc23)c1,15.9,–
0.018,1.8,Cc1ccc(Sc2ccccc2)c(Nc2ccnc3nc(C)ccc23)c1,8.6,Ratio EC50 [4]: 100
3.4,18.9,CCc1ccc2c(Nc3cc(C)ccc3Sc3ccccc3)ncnc2n1,22.7,–
1.8,3.2,Cc1ccc(Sc2ccc(F)cc2)c(Nc2ncnc3nc(C(C)C)ccc23)c1,4.8,–
1.7,15.2,CC(=O)Nc1ccc(Sc2ccc(C)cc2Nc2ncnc3nc(C4CC4)ccc23)cc1,29.8,–
13.3,44.5,COc1ccc(Sc2ccc(C)cc2Nc2ncnc3nc(C)ccc23)cc1,28.6,–
11.2,18.9,Cc1ccc(Sc2ccc(NS(C)(=O)=O)cc2)c(Nc2ncnc3nc(C(C)C)ccc23)c1,> 50,–
1,13.3,Cc1ccc(Sc2ccccc2)c(Nc2ncnc3nc(CC(C)C)ccc23)c1,7.5,–
3.4,10.3,Cc1ccc(Sc2ccccc2)c(Nc2ncnc3nc(C(C)C)ccc23)c1,8,–
6.9,> 12.5,CCc1ccc2c(Nc3cc(C)ccc3Sc3ccc(NC(C)=O)cc3)ncnc2n1,> 12.5,–
3.7,10.4,Cc1ccc(Sc2ccccc2)c(Nc2ncnc3nc(C4CC4)ccc23)c1,9.9,–
3.7,15.8,CC(=O)Nc1ccc(Sc2ccc(C)cc2Nc2ncnc3nc(C4CCC4)ccc23)cc1,49.2,–
1.8,–,Cc1ccc(Sc2ccccc2)c(Nc2ccnc3cc(C)ccc23)c1,2.6,–
13.8,2.6,CC(=O)Nc1ccc(Sc2ccc(C)cc2Nc2ncnc3nc(C(C)C)ccc23)cc1,28.8,–
> 8,> 8,COc1ncc2c(Nc3cc(C)ccc3Sc3ccc(O)cc3)ncnc2n1,> 8,–
3.84,13.3,Cc1ccc(Sc2ccccc2)c(Nc2ncnc3nc(C)ccc23)c1,22.2,–
7.3,14.1,Cc1ccc(Sc2ccc(O)cc2)c(Nc2ncnc3nc(N4CCOCC4)ncc23)c1,> 50,–

EC50 (Hepatitis C virus [1]) [µM],EC50 (Hepatitis C virus [3]) [µM],SMILES,CC50 [2] [µM],other results
0.01,4.8,CCSc1ncc2c(Nc3cc(C)ccc3Sc3ccc(O)cc3)ncnc2n1,46.9,–
1.6,6.1,Cc1ccc(Sc2ccccc2)c(Nc2ncnc3nc(C4CCC4)ccc23)c1,3.6,–
3,10.5,Cc1ccc(Sc2ccc(F)cc2)c(Nc2ncnc3nc(C)ccc23)c1,6.1,–
0.88,2.7,Cc1ccc(Sc2ccc(O)cc2)c(Nc2ncnc3nc(C4CCCCC4)ccc23)c1,> 3.12,–
1.6,10.5,Cc1ccc(Sc2ccc(O)cc2)c(Nc2ncnc3nc(C4CC4)ccc23)c1,17.4,–
2.4,14.3,Cc1ccc(Sc2ccc(O)cc2)c(Nc2ncnc3nc(CC(C)C)ccc23)c1,11.2,–
1.7,11.4,COc1ccc(Sc2ccc(C)cc2Nc2ncnc3nc(C(C)C)ccc23)cc1,8.8,–
12,7.3,CCOc1ncc2c(Nc3cc(C)ccc3Sc3ccc(O)cc3)ncnc2n1,29.7,–
> 50,> 50,Cc1ccc(Sc2ccc(O)cc2)c(Nc2ncnc3nc(N(C)C)ncc23)c1,> 50,–
0.25,7.1,CCCc1ccc2c(Nc3cc(C)ccc3Sc3ccc(O)cc3)ncnc2n1,31.1,–
3.5,5.3,Cc1ccc(Sc2ccc(O)cc2)c(Nc2ncnc3nc(Oc4ccccc4)ncc23)c1,17.1,–
2.8,22,Cc1ccc(Sc2ccc(O)cc2)c(Nc2ncnc3nc(N4CCCCC4)ncc23)c1,> 50,–
0.016,0.17,Cc1ccc(Sc2ccc(O)cc2)c(Nc2ncnc3nc(C(C)C)ccc23)c1,22.9,EC50 (Hepatitis C virus [5]): 0.17 µM; AUC (Rattus norvegicus [6]): 1580 ng·h/mL; CL (Rattus norvegicus [7]): 26.3 mL/min/kg; F (Rattus norvegicus [8]): 10%; half-life [9]: 3.1 h; Cmax [10]: 70 nM
3.3,27.4,CC(=O)Nc1ccc(Sc2ccc(C)cc2Nc2ncnc3nc(CC(C)C)ccc23)cc1,38.5,–
0.05,23.4,Cc1ccc(Sc2ccc(O)cc2)c(Nc2ncnc3nc(C)ccc23)c1,> 100,–
0.63,13.8,CCCc1ccc2c(Nc3cc(C)ccc3Sc3ccc(NC(C)=O)cc3)ncnc2n1,> 25,–
3.1,11.3,Cc1ccc(Sc2ccc(O)cc2)c(Nc2ncnc3nc(C4CCC4)ccc23)c1,31.8,–
10,62.2,CCc1ccc2c(Nc3cc(C)ccc3Sc3ccc(O)cc3)ncnc2n1,78,–
0.32,9.5,CCCc1ccc2c(Nc3cc(C)ccc3Sc3ccccc3)ncnc2n1,11.8,–
